According to patent US20020091144A1, “Treatment of apoptotic cell death” (Johns Hopkins University, priority 2000, published 2002):
Values belong to the molecule of their own block, whether it stands above or below them.

Experiments:
[1] = tested on: Neonatal rat cardiac myocytes; assay: Mitochondrial membrane potential, JC-1 flow cytometry, cardiac myocytes; assay type: cell-based
Procedure: The effects of mitoKATP channel activation by flow cytometry (FIGS. 2F-J) were further quantified. Incubation with 200 μM H2O2 for 2 h decreased the red fluorescence and shifted the distribution curve leftward. […] To confirm the central role of mitoKATP channels, we examined another mitoKATP channel opener, pinacidil.
(§1) Cytoprotective effects of diazoxide in neurons also was evaluated. […] Staining was conducted as follows: loss of mitochondrial membrane potential (ΨΔ) was assessed using either a laser scanning confocal microscope or flow cytometry analysis of cells stained with 5,5′,6,6′-tetrachloro-1,1′,3,3′-tetraethylbenzimidazolecarbocyanide iodine (JC-1, Molecular Probes). Cells were incubated with 2 μg/mL JC-1 for 10 min in 37° C. After washing the dye, cells on dishes were scanned with a confocal microscope at 10x magnification. The dye was excited by the 488 nm line of an argon laser, and the 543 nm line of a helium/neon laser. The red emission of the dye is due to a potential-dependent aggregation in the mitochondria, reflecting ΨΔ. Green fluorescence reflects the monomeric form of JC-1, occuring in the cytosol after mitochondrial membrane depolarization. The fluorescence intensity of the field was measured using integrated image analysis software (Simple32; Compix, Inc.), which was programmed to automatically detect all areas of red or green fluorescence above background. The data are plotted as mean values of arbitrary units of fluorescence intensity. For flow cytometry analysis, cells were harvested by trypsinization after loading of the dye, and analyzed by FACScan (10,000 cells/sample). The excitation wavelength was 488 nm, and the emission fluorescence for JC-1 was monitored at 530 (FL-1) and 582 nm (FL-2). The flow cytometry data are analyzed using Cell Quest (Becton Dickinson, Immunocytometry Systems).

[2] = tested on: Neonatal rat cardiac myocytes; assay: TUNEL staining of H2O2-induced apoptosis; assay type: cell-based
Procedure: (§2) Neonatal rat cardiac myocytes in primary culture were randomly assigned to one of four experimental groups: 1) control group, 2) incubation with 200 μM H2O2, 3) 100 μM diazoxide, applied together with 200 μM H2O2, 4) 100 μM diazoxide and 500 μM 5-HD, applied together with 200 μM H2O2. […] Staining was conducted as follows. TUNEL staining was performed according to the manufacturer's protocol (Roche Molecular Biochemicals). Fluorescein labels incorporated in nucleotide polymers were detected by laser scanning confocal microscopy at excitation wavelength of 488 rim (argon laser). […] Necrotic cells had been excluded from these specimens since they became non-adherent and were removed when the medium was decanted and the cell layers were washed in PBS.

[3] = tested on: cytochrome c; assay: Cytochrome c immunofluorescence (translocation to cytosol); assay type: cell-based, rat
Procedure: as §2, with “PBS. […] This effect was blocked by the mitoKATP channel antagonist 5-HD (FIG. 1D). […] That immunofluorescence was conducted as follows: cells were plated on glass coverslips, treated with drugs as indicated, fixed in ice-cold 1:1 mixture of methanol/acetone, blocked with 10% normal goat serum and 0.075% saponin in PBS, and incubated with primary antibody dissolved in blocking solution at a dilution of 1:100. […] These coverslips were mounted with antifading fluorescence mounting medium and were examined by a laser scanning confocal microscope (Zeiss, LSM 410), using 40x water-immersion lens and 2x optical zoom. […]” for “PBS.”

[4] = tested on: caspase-3; assay: Activated caspase-3 immunofluorescent staining; assay type: cell-based, rat
Procedure: as §2, with “PBS. […] This effect was blocked by the mitoKATP channel antagonist 5-HD (FIG. 1D). […] That immunofluorescence was conducted as follows: cells were plated on glass coverslips, treated with drugs as indicated, fixed in ice-cold 1:1 mixture of methanol/acetone, blocked with 10% normal goat serum and 0.075% saponin in PBS, and incubated with primary antibody dissolved in blocking solution at a dilution of 1:100. […] These coverslips were mounted with antifading fluorescence mounting medium and were examined by a laser scanning confocal microscope (Zeiss, LSM 410), using 40x water-immersion lens and 2x optical zoom. […]” for “PBS.”

[5] = tested on: caspase-7; assay: Activated caspase-7 immunofluorescent staining; assay type: cell-based, rat
Procedure: as §2, with “PBS. […] This effect was blocked by the mitoKATP channel antagonist 5-HD (FIG. 1D). […] That immunofluorescence was conducted as follows: cells were plated on glass coverslips, treated with drugs as indicated, fixed in ice-cold 1:1 mixture of methanol/acetone, blocked with 10% normal goat serum and 0.075% saponin in PBS, and incubated with primary antibody dissolved in blocking solution at a dilution of 1:100. […] These coverslips were mounted with antifading fluorescence mounting medium and were examined by a laser scanning confocal microscope (Zeiss, LSM 410), using 40x water-immersion lens and 2x optical zoom. […]” for “PBS.”

[6] = tested on: poly(ADP-ribose) polymerase (PARP); assay: Cleaved PARP immunofluorescent staining; assay type: cell-based, rat
Procedure: as §2, with “PBS. […] This effect was blocked by the mitoKATP channel antagonist 5-HD (FIG. 1D). […] That immunofluorescence was conducted as follows: cells were plated on glass coverslips, treated with drugs as indicated, fixed in ice-cold 1:1 mixture of methanol/acetone, blocked with 10% normal goat serum and 0.075% saponin in PBS, and incubated with primary antibody dissolved in blocking solution at a dilution of 1:100. […] These coverslips were mounted with antifading fluorescence mounting medium and were examined by a laser scanning confocal microscope (Zeiss, LSM 410), using 40x water-immersion lens and 2x optical zoom. […]” for “PBS.”

[7] = tested on: PARP holoenzyme; assay: Immunoblot of PARP holoenzyme; assay type: cell-based, rat
Procedure: (U) Immunoblot of PARP in neonatal rat cardiac myocytes. Cell lysates from each experimental group were subjected to immunoblot analysis (30 μg protein/lane) with monoclonal antibody against 117-kDa PARP holoenzyme. Cells were treated for either 8 h or 16 hours. To confirm these findings using complementary methods, we examined PARP protein levels as a biochemical indicator of the activation of downstream caspases in each group.

[8] = tested on: Neonatal rat cardiac myocytes; assay: Mitochondrial membrane potential, JC-1 confocal image analysis, cardiac myocytes; assay type: cell-based
Procedure: Redistribution of cytochrome c has been linked to the loss of mitochondrial membrane potential (ΨΔ) and the opening of the mitochondrial permeability transition pore (23). We assessed ΨΔ in H2O2-stimulated myocytes using a fluorescent probe, JC-1 (24). […] Cells exposed to 200 μM H2O2 for 2 h lose punctate red staining (FIG. 2B), in favor of a diffuse green cytosolic signal indicative of the loss of ΨΔ. […] The protective effect of diazoxide is blocked by 500 μM 5-HD (FIG. 2D). These observations were rendered quantitative by automated image analysis (24). FIG. 2E summarizes the red fluorescence, an indicator of ΨΔ.
as §1

[9] = tested on: rat cerebellar granule neurons; assay: Mitochondrial membrane potential, JC-1 staining, cerebellar granule neurons; assay type: cell-based
Procedure: as §1, with “The red emission of the dye is due to a potential-dependent aggregation in the mitochondria, reflecting ΨΔ.” left out, “The flow cytometry data are analyzed using Cell Quest (Becton Dickinson, Immunocytometry Systems).” left out

[10] = tested on: mitoKATP channel; settings: intact heart cells; read-out: value for mitoKATP channel activation; cited from earlier work
[11] = 500 μM 5-HD + 100 μM diazoxide + 200 μM H2O2
[12] = 100 μM diazoxide with 200 μM H2O2

Compound: COc1ccc(Cl)cc1C(=O)NCCc1ccc(S(=O)(=O)NC(=O)NC2CCCCC2)cc1 [glibenclamide]
- effect of KATP blocker on diazoxide protection of ΨΔ ([1]; glibenclamide 10 μM with diazoxide and H2O2): reversed the salutary effect of diazoxide

Compound: CC(N/C(=N\C#N)Nc1ccncc1)C(C)(C)C (stereo not shown) [pinacidil]
- restoring the loss of ΨΔ induced by H2O2 ([1]; 100 μM pinacidil, 200 μM H2O2): equi-effective to diazoxide

- effect on diazoxide inhibition of caspase-3 activation [4, 11]: negated the effect of diazoxide
- effect on diazoxide inhibition of PARP cleavage [6, 11]: prevented the diazoxide effect
Compound: CCCCCC(O)CCCC(=O)O (stereo not shown) [5-HD, 5-hydroxydecanoate]
- effect on diazoxide protection against TUNEL positivity ([2]; 500 μM 5-HD + 100 μM diazoxide + 200 μM H2O2, 16 h): blocked
- effect on diazoxide inhibition of cytochrome c translocation [3, 11]: abrogated the effect of diazoxide
- effect on diazoxide inhibition of caspase-7 activation [5, 11]: abolished the anti-apoptosic effect of diazoxide
- effect on diazoxide protection of PARP holoenzyme ([7]; 5-HD + diazoxide + H2O2, 8 h or 16 hours): abolished the protective effect of diazoxide
- effect on diazoxide prevention of loss of ΨΔ, automated image analysis ([8]; 500 μM 5-HD + 100 μM diazoxide + 200 μM H2O2 for 2 h): antagonized the salutary effect of diazoxide
- effect on diazoxide protection of ΨΔ ([8]; 500 μM 5-HD + 100 μM diazoxide + 200 μM H2O2 for 2 h, confocal images): blocked
- effect of 5-HD alone on ΨΔ ([1]; 5-HD 500 μM + H2O2, absence of diazoxide): no effect on ΨΔ
- effect on diazoxide protection of ΨΔ, flow cytometry ([1]; 5-HD 500 μM + diazoxide 100 μM + 200 μM H2O2): abolished the effect of diazoxide
- effect on diazoxide protection of ΨΔ in neurons ([9]; 500 μM 5-HD + 100 μM diazoxide + 100 μM H2O2 for 1 h): blocked

- H2O2-induced PARP cleavage [6, 12]: inhibited the H2O2-induced PARP cleavage
- loss of 117-kDa PARP holoenzyme band ([7]; diazoxide with H2O2, 8 h or 16 hours): attenuates the loss of PARP holoenzyme
- EC50 ([8]; Rattus norvegicus, 200 μM H2O2 for 2 h, red fluorescence, automated image analysis, read-out: EC50 for prevention of loss of ΨΔ): 40 µM
Compound: CC1=NS(=O)(=O)c2cc(Cl)ccc2N1 [diazoxide]
- H2O2-induced TUNEL positive nuclei ([2]; 100 μM diazoxide with 200 μM H2O2, 16 h): decreased the frequency of H2O2-induced TUNEL positive nuclei
- H2O2-induced cytochrome c translocation to the cytoplasm ([3]; 100 μM diazoxide with 200 μM H2O2, 16 hours): inhibited the translocation of cytochrome c
- H2O2-induced activation of caspase-3 [4, 12]: inhibited the H2O2-induced activation of caspase-3
- H2O2-induced activation of caspase-7 [5, 12]: inhibited H2O2-induced activation of caspase-7
- H2O2-induced loss of mitochondrial membrane potential (ΨΔ), JC-1 red staining ([8]; 100 μM diazoxide, 200 μM H2O2 for 2 h, confocal images): protects against H2O2-induced loss of mitochondrial integrity
- loss of ΨΔ, red fluorescence by automated image analysis ([8]; diazoxide 20-200 μM, 200 μM H2O2 for 2 h): prevented loss of ΨΔ in a dose-dependent manner
- H2O2-induced dissipation of ΨΔ, red fluorescence distribution ([1]; diazoxide 20, 50, 100 μM, 200 μM H2O2 for 2 h): prevented the H2O2-induced dissipation of ΨΔ in a dose-dependent manner
- H2O2-induced loss of ΨΔ in neurons, JC-1 red staining ([9]; 100 μM diazoxide, 100 μM H2O2 for 1 h): protects against H2O2-induced loss of mitochondrial integrity
- EC50 [10]: 27 µM
